pKi: −log10 of the molar value.
Key:
D(4) dopamine receptor = target: T1, D(4) dopamine receptor (Homo sapiens, UniProt P21917); assay: Binding affinity at cloned human Dopamine receptor D4 expressed in HEK 293 cells, using [3H]nemonapride as radioligand; format: cell-based, HEK293
T1 sequence (P21917 whole entry): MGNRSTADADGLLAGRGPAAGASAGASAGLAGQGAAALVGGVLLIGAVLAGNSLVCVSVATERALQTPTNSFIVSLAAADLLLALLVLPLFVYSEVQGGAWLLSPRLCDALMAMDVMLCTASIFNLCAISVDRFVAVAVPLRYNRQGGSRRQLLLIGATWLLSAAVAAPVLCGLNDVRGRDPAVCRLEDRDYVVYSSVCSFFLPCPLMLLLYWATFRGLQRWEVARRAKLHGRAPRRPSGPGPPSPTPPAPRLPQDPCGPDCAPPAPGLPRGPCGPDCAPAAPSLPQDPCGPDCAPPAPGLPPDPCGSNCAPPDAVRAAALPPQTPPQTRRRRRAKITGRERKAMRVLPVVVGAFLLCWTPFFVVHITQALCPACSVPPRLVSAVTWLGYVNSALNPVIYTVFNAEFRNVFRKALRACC

D(2) dopamine receptor = D(2) dopamine receptor (Homo sapiens, UniProt P14416); assay: Binding affinity at cloned human Dopamine receptor D2 expressed in CHO cells, using [125I]iodosulpiride as radioligand; format: cell-based
D(2) dopamine receptor, sequence (P14416 whole entry): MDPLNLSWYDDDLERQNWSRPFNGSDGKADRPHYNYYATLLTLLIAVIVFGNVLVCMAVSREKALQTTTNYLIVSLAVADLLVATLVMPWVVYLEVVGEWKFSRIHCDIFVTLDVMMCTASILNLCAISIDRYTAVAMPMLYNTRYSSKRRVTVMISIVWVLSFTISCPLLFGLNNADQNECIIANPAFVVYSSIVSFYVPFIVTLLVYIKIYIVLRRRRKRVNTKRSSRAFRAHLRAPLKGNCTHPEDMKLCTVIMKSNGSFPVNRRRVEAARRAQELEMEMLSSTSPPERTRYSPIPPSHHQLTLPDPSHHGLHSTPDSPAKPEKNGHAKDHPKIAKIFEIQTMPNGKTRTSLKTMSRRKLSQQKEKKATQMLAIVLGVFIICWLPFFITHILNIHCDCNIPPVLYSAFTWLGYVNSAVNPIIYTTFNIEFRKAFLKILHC

[1] = target: Dopamine receptors; D2 & D4 (Homo sapiens) (UniProt P14416+P21917); assay: Selectivity of D2 receptor over D4 receptor; format: protein assay
Dopamine receptors; D2 & D4 (Homo sapiens), sequence (P14416 whole entry, looked up, one chain of several): as the sequence (P14416 whole entry) above

## CC(C)(C)C(=O)NCCCCN1CCN(c2ccccc2)CC1
D(4) dopamine receptor
  pKi: 6.50
D(2) dopamine receptor
  pKi: 6.10
[1]
  Selectivity: 3

## CCCC(C)(C)C(=O)NCCN1CCN(c2ccc(Cl)cc2)CC1
D(4) dopamine receptor
  pKi: 8.10
D(2) dopamine receptor
  pKi: 5.60
[1]
  Selectivity: 320

## CC(=O)NCCCCN1CCN(c2ccc(Cl)cc2)CC1
D(4) dopamine receptor
  pKi: 5.90
D(2) dopamine receptor
  pKi: 5.80
[1]
  Selectivity: 1

## CC1CN(CCCCNC(=O)C(C)(C)C)CCN1c1ccc(Cl)cc1 (stereo not drawn)
D(4) dopamine receptor
  pKi: 7.20
D(2) dopamine receptor
  pKi: 5.80

## CCCC(C)(C)C(=O)NCCCCN1CCN(c2ccc(Cl)cc2)CC1
D(4) dopamine receptor
  pKi: 7.90
D(2) dopamine receptor
  pKi: 5.80
[1]
  Selectivity: 125

## CC(C)(C)C(=O)NCCN1CCN(c2ccc(Cl)cc2)CC1
D(4) dopamine receptor
  pKi: 7.60
D(2) dopamine receptor
  pKi: 5.60
[1]
  Selectivity: 100

## CC(C)(C)C(=O)NCCCCN1CCN(c2ccc(C(F)(F)F)cc2)CC1
D(4) dopamine receptor
  pKi: 7.30
D(2) dopamine receptor
  pKi: 5.40
[1]
  Selectivity: 80

## COc1ccccc1N1CCN(CCCCNC(=O)C(C)(C)C)CC1
D(4) dopamine receptor
  pKi: 7.90
D(2) dopamine receptor
  pKi: 7.70
[1]
  Selectivity: 2

## O=C(NCCCCN1CCN(c2ccc(Cl)cc2)CC1)C12CC3CC(CC(C3)C1)C2
D(4) dopamine receptor
  pKi: 7.70
D(2) dopamine receptor
  pKi: 6.20
[1]
  Selectivity: 30

## CC(C)(C)C(=O)NCCCCCN1CCN(c2ccc(Cl)cc2)CC1
D(4) dopamine receptor
  pKi: 6.90
D(2) dopamine receptor
  pKi: 6.40
[1]
  Selectivity: 3

## O=C(NCCCCN1CCN(c2ccc(Cl)cc2)CC1)c1ccccc1
D(4) dopamine receptor
  pKi: 6.80
D(2) dopamine receptor
  pKi: 6.40
[1]
  Selectivity: 3

## CC(C)(C)C(=O)NCCCCN1CCN(c2cccc(Cl)c2)CC1
D(4) dopamine receptor
  pKi: 7.00
D(2) dopamine receptor
  pKi: 6.60
[1]
  Selectivity: 3

## CC(C)(C)C(=O)NCCCCN1CCN(c2ccc(Br)cc2)CC1
D(4) dopamine receptor
  pKi: 7.50
D(2) dopamine receptor
  pKi: 5.80
[1]
  Selectivity: 50

## O=C(NCCN1CCN(c2ccc(Cl)cc2)CC1)C12CC3CC(CC(C3)C1)C2
D(4) dopamine receptor
  pKi: 8.30
D(2) dopamine receptor
  pKi: 6.40
[1]
  Selectivity: 80

## CC(C)(C)C(=O)NCCCCN1CCN2c3ccc(Cl)cc3CCC2C1 (stereo not drawn)
D(4) dopamine receptor
  pKi: 7.20
D(2) dopamine receptor
  pKi: 6.40

## CCC(C)(C)C(=O)NCCCCN1CCN(c2ccc(Cl)cc2)CC1
D(4) dopamine receptor
  pKi: 7.80
D(2) dopamine receptor
  pKi: 6.00
[1]
  Selectivity: 63

## CC1(C(=O)NCCCCN2CCN(c3ccc(Cl)cc3)CC2)CCCCC1
D(4) dopamine receptor
  pKi: 8.00
D(2) dopamine receptor
  pKi: 6.00
[1]
  Selectivity: 100

## CC(C)(C)C(=O)NCCCCN1CCN(c2ccc(Cl)cc2)CC1
D(4) dopamine receptor
  pKi: 7.90
D(2) dopamine receptor
  pKi: 5.60
[1]
  Selectivity: 200

## CC1(C(=O)NCCN2CCN(c3ccc(Cl)cc3)CC2)CCCCC1
D(4) dopamine receptor
  pKi: 8.10
D(2) dopamine receptor
  pKi: 6.10
[1]
  Selectivity: 100

## CC(C)(C)C(=O)NCCCCN1CCN(c2ccc(F)cc2)CC1
D(4) dopamine receptor
  pKi: 6.90
D(2) dopamine receptor
  pKi: 5.70
[1]
  Selectivity: 15

## CC(C)(C)C(=O)NCCCN1CCN(c2ccc(Cl)cc2)CC1
D(4) dopamine receptor
  pKi: 6.70
D(2) dopamine receptor
  pKi: < 5.00
[1]
  Selectivity: > 50

## CCC(C)(C)C(=O)NCCN1CCN(c2ccc(Cl)cc2)CC1
D(4) dopamine receptor
  pKi: 8.10
[1]
  Selectivity: 320

## CC(C)(C)C(=O)NCCCCN1CCN(c2ccccc2Cl)CC1
D(4) dopamine receptor
  pKi: 7.10
D(2) dopamine receptor
  pKi: 7.20
[1]
  Selectivity: 1

## COc1ccc(N2CCN(CCCCNC(=O)C(C)(C)C)CC2)cc1
D(4) dopamine receptor
  pKi: 6.50
D(2) dopamine receptor
  pKi: < 5.00
[1]
  Selectivity: > 30

## CC(C)C(=O)NCCCCN1CCN(c2ccc(Cl)cc2)CC1
D(4) dopamine receptor
  pKi: 6.90
D(2) dopamine receptor
  pKi: 5.70
[1]
  Selectivity: 16

## COc1cc(Cl)ccc1N1CCN(CCCCNC(=O)C(C)(C)C)CC1
D(4) dopamine receptor
  pKi: 7.80
D(2) dopamine receptor
  pKi: 6.80
[1]
  Selectivity: 10

## CCCCC(C)(C)C(=O)NCCN1CCN(c2ccc(Cl)cc2)CC1
D(4) dopamine receptor
  pKi: 7.50
D(2) dopamine receptor
  pKi: 5.80
[1]
  Selectivity: 50
